Laboratory results as given in EP1258532A1, “Thermostable D-hydantoinase from Bacillus circulans and the application thereof” (NATIONAL SCIENCE COUNCIL, priority 2001, dated 2002).

Experiments:
D-hydantoinase [1] = experiment: Effects of metal ions on D-hydantoinase activity; assay type: biochemical, Bacillus circulans; conditions: ion 500 µM; for Specific activity: 15 min at room temperature, substrate 10 mM D,L-p-HPH in 50 mM Tris-HCl (pH 8.0); for Relative activity: activity percentage based on that without adding ions
Experimental: Various divalent metal ions (as set forth in Table 1 below) were added to the vector pQE-bcidht in E. coli NovaBlue, crude extracts thereof or the purified D-hydantoinase of the present invention at 500 µM concentration. After 15 minutes of incubation at room temperature, 10 mM substrate of D,L-p-HPH (dissolved in 50 mM Tris-HCl (pH 8.0)) was added. The specific activity of the enzyme was then measured.

D-hydantoinase [2] = experiment: Effects of H2O2, NaCl and NH4Cl on D-hydantoinase activity; assay type: biochemical, Bacillus circulans; conditions: in the presence of 0.8 M H2O2; 25°C for 10 min, residual H2O2 removed with catalase; 800000 µM
Experimental: The vector pQE-bcidht in E. coli NovaBlue, crude extracts thereof or the purified D-hydantoinase of the present invention was incubated at 25°C for 10 min. Afterwards, the catalase was added to the solution to remove residual H2O2, and then the enzyme activity was measured. In addition, various concentrations of NaCl and NH4Cl were added to the solution containing D-hydantoinase. The solution was incubated at room temperature for 10 min, and the enzyme activity was measured.

Substance | Specific activity (D-hydantoinase [1]) [unit/mg] | Relative activity (D-hydantoinase [1]; 15 min) [%] | retained enzyme activity (D-hydantoinase [2]) [%] | Relative activity (D-hydantoinase [1]) [%] | inhibition of D-hydantoinase activity (D-hydantoinase [1]; substrate 10 mM D,L-p-HPH) [%]
FeSO2 | 2.52 | 87.5 |  |  | 
H2O2 |  |  | 85 |  | 
MgSO4 | 2.69 |  |  | 94 | 
NiSO4 | 4.00 |  |  | 139 | 
ZnSO4 | 1.44 |  |  | 50 | 50
